The values below come from PubChem BioAssay AID266 (DTP/NCI, 2004).

Results filed as inconclusive are left out.

The test has as its system Nude mice, LX-1 lung xenograft intrarenal, tumor weight T/C. As to the kind of experiment: NCI In Vivo Anticancer Drug Screen. Data for tumor model Human Lung LX-1 Xenograft (intrarenal inoculation) in NU/NU BALB/C (nude) mice. Conditions: endpoint: mean tumor weight change, higher = larger tumour. The method, then: The antitumor activity of compounds was measured in mice bearing transplantable tumors. Survival or tumor size were measured and the results are expressed as the measurement made in the treated group (T) divided by the measurement made in the vehicle treated control group (C). The tumor model used in this assay is Human Lung LX-1 Xenograft (intrarenal inoculation) in NU/NU BALB/C (nude) mice
(In general: In xenograft studies the graft and the host belong to different species.)

Where [1] appears, read: dose: 37.5 mg/kg/injection, schedule: Q04DX003 (sc), vehicle: saline.
Where [2] appears, read: dose: 75.0 mg/kg/injection, schedule: Q04DX003 (sc), vehicle: saline.
Where [3] appears, read: dose: 200.0 mg/kg/injection, schedule: Q01DX010 (sc), vehicle: saline.
Setting [4] is: dose: 200.0 mg/kg/injection, schedule: Q04DX003 (sc), vehicle: Klucel (hydroxypropylcellulose) (HPC).
Setting [5] is: dose: 400.0 mg/kg/injection, schedule: Q04DX003 (sc), vehicle: Klucel (hydroxypropylcellulose) (HPC).
Where [6] appears, read: dose: 800.0 mg/kg/injection, schedule: Q04DX003 (sc), vehicle: Klucel (hydroxypropylcellulose) (HPC).
Where [7] appears, read: dose: 300.0 mg/kg/injection, schedule: Q04DX003 (sc), vehicle: saline with Tween-80.
[8] abbreviates: dose: 600.0 mg/kg/injection, schedule: Q04DX003 (sc), vehicle: saline with Tween-80.
Setting [9] is: dose: 1200.0 mg/kg/injection, schedule: Q04DX003 (sc), vehicle: saline with Tween-80.
Where [10] appears, read: dose: 2400.0 mg/kg/injection, schedule: Q04DX003 (sc), vehicle: saline with Tween-80.
Setting [11] is: dose: 150.0 mg/kg/injection, schedule: Q04DX003 (sc), vehicle: saline.

Consider `CC1CCC(NC(=O)N(CCCl)N=O)CC1` (stereo unspecified), for which the T/C was 67 % of control (dose: 3.13 mg/kg/injection, schedule: Q01DX010 (sc), vehicle: Klucel (hydroxypropylcellulose) (HPC)) and 3 % of control (dose: 6.25 mg/kg/injection, schedule: Q01DX010 (sc), vehicle: Klucel (hydroxypropylcellulose) (HPC)).
As to `CCCCCCCCCCCCCCCCCCOCC(COP(=O)([O-])OCC[N+](C)(C)C)OC` (stereo unspecified), under setting [1], the T/C was 68 % of control.
In the case of `CCC1OC(OC)C=CC1=O` (stereo unspecified), the T/C reads like this: under setting [1], 90 % of control; under setting [2], 99 % of control.
As for `N/C=N/O`, the T/C by setting is: under setting [3], 180 % of control; (dose: 400.0 mg/kg/injection, schedule: Q01DX010 (sc), vehicle: saline) 161 % of control.
Consider `COc1cc(C[C@H]2c3cc(OC)c(OC)cc3CCN2C)c(Oc2cc3c(cc2OC)-c2c(OC)c(OC)cc4c2[C@H](C3)N(C)CC4)cc1OC`, for which the T/C (dose: 50.0 mg/kg/injection, schedule: Q01DX010 (sc), vehicle: saline with Tween-80) was 85 % of control; the T/C (dose: 100.0 mg/kg/injection, schedule: Q01DX010 (sc), vehicle: saline with Tween-80) was 107 % of control; the T/C (dose: 200.0 mg/kg/injection, schedule: Q01DX010 (sc), vehicle: saline with Tween-80) was 73 % of control; the T/C (dose: 400.0 mg/kg/injection, schedule: Q01DX010 (sc), vehicle: saline with Tween-80) is 90 % of control.
Consider `CN(C)/N=N/c1nc[nH]c1C(N)=O`, for which the T/C is -25 % of control (dose: 100.0 mg/kg/injection, schedule: Q04DX003 (sc), vehicle: Klucel (hydroxypropylcellulose) (HPC)); 2 % of control (dose: 200.0 mg/kg/injection, schedule: Q01DX010 (sc), vehicle: Klucel (hydroxypropylcellulose) (HPC)); -43 % of control under setting [4]; -91 % of control under setting [5]; -100 % of control under setting [6].
Turning to `CC1CCC(n2cnc3c(Cl)ncnc32)O1` (stereo unspecified), under “dose: 300.0 mg/kg/injection, schedule: Q04DX003 (sc), vehicle: Klucel (hydroxypropylcellulose) (HPC)”, the T/C was 81 % of control.
Turning to `CCOC1=Cc2c(oc3c(C(C)(C)C)cc(OCC)cc23)OC(C(C)(C)C)=C1`, the T/C runs as follows: (dose: 150.0 mg/kg/injection, schedule: Q04DX003 (sc), vehicle: saline with Tween-80) 92 % of control; under setting [7], 101 % of control; under setting [8], 102 % of control.
Consider `O=C(O)C1(NO)CCCCC1`, for which the T/C by setting is: under setting [4], 81 % of control; under setting [5], 85 % of control; under setting [6], 81 % of control; (dose: 1600.0 mg/kg/injection, schedule: Q04DX003 (sc), vehicle: Klucel (hydroxypropylcellulose) (HPC)) 77 % of control.
Take `c1cc2n(n1)CCN2`: the T/C is 107 % of control (dose: 50.0 mg/kg/injection, schedule: Q01DX010 (ip), vehicle: saline); 26 % of control (dose: 50.0 mg/kg/injection, schedule: Q01DX010 (sc), vehicle: saline); 70 % of control (dose: 100.0 mg/kg/injection, schedule: Q01DX010 (ip), vehicle: saline); 12 % of control (dose: 100.0 mg/kg/injection, schedule: Q01DX010 (sc), vehicle: saline); 170 % of control (dose: 166.66 mg/kg/injection, schedule: Q04DX003 (sc), vehicle: saline); -33 % of control under setting [3]. Moreover, the T/C by setting is: (dose: 333.33 mg/kg/injection, schedule: Q04DX003 (sc), vehicle: saline) 150 % of control; (dose: 666.65 mg/kg/injection, schedule: Q04DX003 (sc), vehicle: saline) 59 % of control.
On to `NC(=O)CCC(N)C(=O)O` (stereo unspecified), for which the T/C was 88 % of control (dose: 75.0 mg/kg/injection, schedule: Q04DX003 (ip), vehicle: suspension in saline); 77 % of control (dose: 150.0 mg/kg/injection, schedule: Q04DX003 (ip), vehicle: suspension in saline); 93 % of control (dose: 300.0 mg/kg/injection, schedule: Q04DX003 (ip), vehicle: suspension in saline); 100 % of control (dose: 600.0 mg/kg/injection, schedule: Q04DX003 (ip), vehicle: suspension in saline); 87 % of control (dose: 1200.0 mg/kg/injection, schedule: Q04DX003 (ip), vehicle: suspension in saline).
For the compound `CCCCNc1ccc2nnc(C)n2n1`, the T/C (dose: 150.0 mg/kg/injection, schedule: Q04DX003 (ip), vehicle: DMSO) is 99 % of control.
In the case of `Oc1cc2ccccc2c(-c2c(O)c(O)cc3ccccc23)c1O`, the T/C by setting is: under setting [8], 122 % of control; under setting [9], 95 % of control; under setting [10], 84 % of control.
Take `O=CC(S)CO` (stereo unspecified): the T/C is, setting by setting: (dose: 100.0 mg/kg/injection, schedule: Q04DX003 (sc), vehicle: suspension in saline) 94 % of control; (dose: 200.0 mg/kg/injection, schedule: Q04DX003 (sc), vehicle: suspension in saline) 94 % of control; (dose: 400.0 mg/kg/injection, schedule: Q04DX003 (sc), vehicle: suspension in saline) 84 % of control.
Consider `CCN(CC)CCOCCO`, for which the T/C was 109 % of control under setting [11]; 105 % of control (dose: 300.0 mg/kg/injection, schedule: Q04DX003 (sc), vehicle: saline); 86 % of control (dose: 600.0 mg/kg/injection, schedule: Q04DX003 (sc), vehicle: saline); 77 % of control (dose: 1200.0 mg/kg/injection, schedule: Q04DX003 (sc), vehicle: saline).
In the case of `O=C(CCCCCCC(=O)ON1C(=O)CCC1=O)ON1C(=O)CCC1=O`, the T/C runs as follows: under setting [7], 104 % of control; under setting [8], 95 % of control; under setting [9], 89 % of control; under setting [10], 72 % of control.
For the compound `c1ccc2c(c1)[As]=c1ccccc1=[As]2` (stereo unspecified), the T/C reads like this: (dose: 18.75 mg/kg/injection, schedule: Q04DX003 (sc), vehicle: saline) 58 % of control; under setting [1], 46 % of control; under setting [2], 50 % of control; under setting [11], 40 % of control.
As to `O=CC(O)C(O)C(O)C(O)CO` (stereo unspecified), the T/C is, setting by setting: (dose: 75.0 mg/kg/injection, schedule: Q04DX003 (ip), vehicle: saline) 103 % of control; (dose: 150.0 mg/kg/injection, schedule: Q04DX003 (ip), vehicle: saline) 101 % of control; (dose: 300.0 mg/kg/injection, schedule: Q04DX003 (ip), vehicle: saline) 115 % of control; (dose: 600.0 mg/kg/injection, schedule: Q04DX003 (ip), vehicle: saline) 88 % of control; (dose: 1200.0 mg/kg/injection, schedule: Q04DX003 (ip), vehicle: saline) 95 % of control.
For `NC(CCl)=NCC12CC3CC(CC(C3)C1)C2`, the T/C by setting is: (dose: 18.75 mg/kg/injection, schedule: Q04DX003 (sc), vehicle: Klucel (hydroxypropylcellulose) (HPC)) 157 % of control; (dose: 75.0 mg/kg/injection, schedule: Q04DX003 (sc), vehicle: Klucel (hydroxypropylcellulose) (HPC)) 110 % of control.
In the case of `CCC1CCCCN1C(=S)N/N=C(\C)c1ccccn1` (stereo unspecified), the T/C runs as follows: (dose: 18.75 mg/kg/injection, schedule: Q04DX003 (sc), vehicle: saline with Tween-80) 100 % of control; (dose: 37.5 mg/kg/injection, schedule: Q04DX003 (sc), vehicle: saline with Tween-80) 83 % of control; (dose: 75.0 mg/kg/injection, schedule: Q04DX003 (sc), vehicle: saline with Tween-80) 81 % of control.
